Data reported in patent US11649209B2, “Crystalline freebase forms of a biphenyl compound” (THERAVANCE BIOPHARMA R&D IP, LLC, priority 2009, dated 2023).
In brackets after ≈: the same amount, converted by molar mass. Where two headings read alike, the source gives them in different places.

Columns and labels:
[1] = Micronization, particle size by laser light diffraction; type: physicochemical
Excerpt: Samples of the crystalline freebase Form III were micronized using either an APTM 4″ micronizer and the particle size determined buy laser light diffraction.

[2] = Storage stability of micronized material (PXRD, DSC); type: physicochemical; conditions: 3 months at 40° C./20% RH, 50° C./ambient humidity
Method: For reference, the particle size of the input crystalline freebase Form III was X10=5.58 μm X50=18.2 μm, and X90=49.7 μm. Micronization yielded particles in the respirable size range.
There was an additional small thermal event in the micronized material at 87° C., likely due to crystallization.

pH solubility = type: physicochemical; conditions: for solubility: thermodynamic from solid
Method: Solubility in water is 0.66 mg/mL with a natural pH of 8.9.

[3] = Exposure to atmospheric moisture, elevated temperature and humidity; type: physicochemical
Solution stability = type: physicochemical
Method: The crystalline freebase Form III solutions are stable in pH 4 and pH 6 buffers for up to 7 days at 50° C. or exposed to light. The solutions are stable in water and saline for 7 days at room temperature, protected from light.

[4] = Gravimetric vapor sorption assessment; type: physicochemical
Method: Gravimetric vapor sorption (GVS) studies were performed using a Surface
Measurements System DVS-1 instrument for generation of full sorption isotherm using water vapor perfusion at 25° C. A sample size of approximately 7 mg was placed into a clean and dry tared sample mesh pan and weighed using the internal balance. The target relative humidity (RH) ranges were from 30% to 90%, then 90% to 0% and 0% to 30% with 10% steps. The point of equilibrium was automatically determined using a 0.02 dm/dt asymptote setting.

[5] = target: T1, M3 muscarinic receptor subtype (Homo sapiens, UniProt P20309); test: Radioligand binding assay ([3H]-NMS displacement) on muscarinic receptor subtypes; conditions: this or a similar assay
T1 construct: expressed in transfected cells
T1 sequence (P20309 whole entry): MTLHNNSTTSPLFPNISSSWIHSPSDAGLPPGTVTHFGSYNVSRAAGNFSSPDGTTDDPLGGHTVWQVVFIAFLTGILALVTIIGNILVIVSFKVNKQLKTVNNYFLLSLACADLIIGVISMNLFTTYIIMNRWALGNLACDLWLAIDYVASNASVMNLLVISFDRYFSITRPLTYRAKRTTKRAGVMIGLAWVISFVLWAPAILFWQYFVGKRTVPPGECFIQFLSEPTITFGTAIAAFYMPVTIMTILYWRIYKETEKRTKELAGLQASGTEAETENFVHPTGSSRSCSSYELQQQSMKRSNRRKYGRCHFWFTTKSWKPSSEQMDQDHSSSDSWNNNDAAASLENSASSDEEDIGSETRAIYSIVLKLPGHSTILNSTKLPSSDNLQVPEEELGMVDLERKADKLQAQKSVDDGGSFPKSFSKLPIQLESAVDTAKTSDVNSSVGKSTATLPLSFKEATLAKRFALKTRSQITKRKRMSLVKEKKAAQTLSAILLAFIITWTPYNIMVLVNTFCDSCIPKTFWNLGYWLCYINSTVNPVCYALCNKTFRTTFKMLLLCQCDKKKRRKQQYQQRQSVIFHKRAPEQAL
Method: CHO cell lines stably expressing cloned human hM1, hM2, hM3 and hM4 muscarinic receptor subtypes, respectively, were grown to near confluency in medium consisting of HAM's F-12 supplemented with 10% FBS and 250 μg/mL Geneticin. The cells were grown in a 5% CO2, 37° C. incubator and lifted with 2 mM EDTA in dPBS. Cells were collected by 5 minute centrifugation at 650×g, and cell pellets were either stored frozen at −80° C. or membranes were prepared immediately. For membrane preparation, cell pellets were resuspended in lysis buffer and homogenized with a Polytron PT-2100 tissue disrupter (Kinematica AG; 20 seconds×2 bursts). Crude membranes were centrifuged at 40,000×g for 15 minutes at 4° C. […] The protein concentration of the membrane suspension was determined by the method described in Lowry, O. et al.,Journal of Biochemistry 193:265 (1951). […]
Radioligand binding assays were performed in 96-well microtiter plates in a total assay volume of […]. […] Filter plates were rinsed three times with wash buffer (10 mM HEPES) to remove unbound radioactivity. […] The plates were then counted in a PerkinElmer Topcount liquid scintillation counter (PerkinElmer Inc., Wellesley, Mass.). Binding data were analyzed by nonlinear regression analysis with the GraphPad Prism Software package (GraphPad Software, Inc., San Diego, Calif.) using the one-site competition model. […]

hM3 receptor = target: T2, hM3 receptor (Homo sapiens, UniProt P20309); test: Blockade of agonist-mediated calcium release via FLIPR; type: cell-based; conditions: CHO cells stably expressing the hM3 receptor
T2 construct: expressed in transfected cells
T2 sequence (P20309 whole entry): as above
Excerpt: Muscarinic receptor subtypes (M1, M3 and M5 receptors), which couple to Gq proteins, activate the phospholipase C (PLC) pathway upon agonist binding to the receptor. As a result, activated PLC hydrolyzes phosphatyl inositol diphosphate (PIP2) to diacylglycerol (DAG) and […] (IP3), which in turn generates calcium release from intracellular stores, i.e., endoplasmic and sarcoplasmic reticulum. The FLIPR (Molecular Devices, Sunnyvale, Calif.) assay capitalizes on this increase in intracellular calcium by using a calcium sensitive dye (Fluo-4AM, Molecular Probes, Eugene, Oreg.) that fluoresces when free calcium binds. This fluorescence event is measured in real time by the FLIPR, which detects the change in fluorescence from a monolayer of cells cloned with human M1 and M3, and chimpanzee M5 receptors. Antagonist potency can be determined by the ability of antagonists to inhibit agonist-mediated increases in intracellular calcium. […]
To determine antagonist potency, the dose-dependent stimulation of intracellular Ca^2+ release for oxotremorine is first determined so that antagonist potency can later be measured against oxotremorine stimulation at an EC90 concentration. […]
The change of fluorescence is expressed as maximum fluorescence minus baseline fluorescence for each well. […]

MCh response = test: Rat Einthoven assay (bronchoprotection against MCh); type: in vivo; conditions: for ID50: 1.5 hrs post-dose, inhalation
Method: All test compounds are diluted in sterile water and are dosed via the inhalation route (IH). […] Each test compound solution is nebulized over a 10 minute time period in a pie shaped dosing chamber capable of holding six rats. At predetermined time points after inhalation of compound, the Einthoven assay is performed. […] The jugular vein is catheterized with saline filled polyethylene catheters (PE-50) and used to infuse MCh. The trachea is then dissected and cannulated with a 14G needle and used for rat ventilation during pulmonary evaluation. Once surgery is complete, rats are ventilated using a piston respirator set at a stroke volume of 1 ml/100 g body weight but not exceeding 2.5 ml volume, and at a rate of 90 strokes per minute. The changes in pressure that occur with each breath are measured. […] The MCh is infused for 2.5 minutes from a syringe pump at a rate of 2 mL/kg/min. The animals are euthanized upon completion of the studies. Changes in ventilation pressure (cm H2O) in treated animals are expressed as % inhibition of MCh response relative to control animals.

[6] = tested on: pilocarpine-induced salivation; test: Rat antisialagogue assay; type: in vivo; conditions: evaluated at 1, 6 and 24 hr post-dose
Method: Rats (Sprague-Dawley, male, 250-350 g) are dosed, anesthetized and cannulated as described for Assay 3. At predetermined time points and after surgery, animals are placed on their dorsal side at a 20° incline with their head in a downward slope. A pre-weighed gauze pad is inserted in the animal's mouth and the muscarinic agonist pilocarpine (PILO) (3 mg/kg, iv.) is administered. Saliva produced during 10 minutes post-PILO is measured gravimetrically by determining the weight of the gauze pad before and after PILO. Antisialagogue effects are expressed as % inhibition of salivation relative to control animals.
The rat antisialagogue assay was developed to assess systemic exposure and calculate the lung selectivity index (LSI) of test compounds. The standard, tiotropium, was evaluated in this model at 1, 6, and 24 hr post-dose. […] This finding is consistent with the peak effects observed in the Einthoven assay.
This model is a modified version of the procedure described in Rechter, “Estimation of anticholinergic drug effects in mice by antagonism against pilocarpine-induced salivation” Ata Pharmacol Toxicol 24:243-254 (1996). The mean weight of saliva in vehicle-treated animals, at each pre-treatment time, is calculated and used to compute % inhibition of salivation, at the corresponding pre-treatment time, at each dose.

[7] = input material before micronization

For `CN(CCN1CCC(OC(=O)Nc2ccccc2-c2ccccc2)CC1)C(=O)c1ccc(CN2CCC(C(N)=O)CC2)cc1` [Form III, Biphenyl-2-ylcarbamic Acid 1-(2-{[4-(4-Carbamoylpiperidin-1-ylmethyl)benzoyl]methylamino}ethyl)piperidin-4-yl Ester], the “Particle size X10” value [1, 7] was 5.58 μm, the “Particle size X50” value [1, 7] was 18.2 μm and the “Particle size X90” value [1, 7] was 49.7 μm. The “Particle size X10” value ([1]; micronized material) was 1.27 μm, the “Particle size X50” value ([1]; micronized material) was 2.69 μm and the “Particle size X90” value ([1]; micronized material) was 5.25 μm. For the same compound, the “change in PXRD after storage” value ([2]; 40° C./75% RH (uncapped)) was “No changes were observed”, the “amorphous content by DSC after storage” value ([2]; 40° C./75% RH naked) was “no evidence of amorphous content” and the solubility (pH solubility; aqueous buffer, in media up to pH 7, read-out: Solubility) was over 2000 µg/mL. The “natural pH in water” value (pH solubility; at solubility in water) was 8.9, the solubility (pH solubility; simulated lung fluid, fassgf or other biorelevant, no change between 4 hour and 24 hour measurements, read-out: Solubility in simulated lung fluid) was 460 µg/mL (≈ 770 µM) and the solubility (pH solubility; water, pH 8.9, water, natural pH of 8.9, read-out: Solubility in water) was 660 µg/mL (≈ 1100 µM). The “stability upon exposure to elevated temperature and humidity” value [3] was “stable”, the “solution stability in water and saline” value (Solution stability; 7 days at room temperature, protected from light) was “stable” and the “solution stability in buffers” value (Solution stability; pH 4 and pH 6 buffers, up to 7 days at 50° C. or exposed to light) was “stable”. It also gave a reversible water uptake ([4]; between 0 and 90% RH at 25° C.) of under 2 % w/w and a reversible water uptake ([4]; between 0 and 90% relative humidity at 25° C.) of under 2 % wt/wt.
`CN(CCN1CCC(OC(=O)Nc2ccccc2-c2ccccc2)CC1)C(=O)c1ccc(CN2CCC(C(N)=O)CC2)cc1` [compound of formula I, biphenyl-2-ylcarbamic acid 1-(2-{[4-(4-carbamoylpiperidin-1-ylmethyl)benzoyl]methylamino}ethyl)piperidin-4-yl ester] gave a Ki [5] of under 5 nM and a Ki (hM3 receptor) of under 5 nM.
In the case of `C[N+]1(C)CCC(OC(=O)C(O)(c2ccccc2)C2CCCC2)C1` (centres unmarked) [glycopyrrolate], the ID50 (MCh response) is reported as 15 µg/mL.
With `CC(C)[N+]1(C)[C@@H]2CC[C@H]1C[C@@H](OC(=O)C(CO)c1ccccc1)C2` (some centres unmarked) [ipratropium] the “fold less potent 6-hr post-dose compared to 1.5 hr potency” value (MCh response; 10 and 30 μg/ml, 6 hr post-dose) was “about 3 fold” and the ID50 (MCh response) was 4.4 µg/mL.
For `C[N+]1(C)[C@@H]2C[C@@H](OC(=O)C(O)(c3cccs3)c3cccs3)C[C@H]1[C@@H]1O[C@@H]12` [tiotropium], the ID50 (MCh response) was 6 µg/mL, the “fold more potent at 6 hr and 24 hr compared to 1.5 hr potency” value (MCh response; 6 hr and 24 hr post-dose) was “about 2 fold” and the “time of peak bronchoprotection post-dose” value (MCh response; slow onset of effect) was 6 h. The “time post dose of highest potency at inhibiting pilocarpine-induced salivation” value [6] was 6 h.
